{
  "source": "paper PMC5216056",
  "about": "(Nature Communications, 2017)",
  "key": {"hABHD12": {"target": "T1, hABHD12 (Homo sapiens, UniProt Q8N2K0)", "T1 construct": "expressed in transfected cells", "T1 sequence (Q8N2K0 1-398)": "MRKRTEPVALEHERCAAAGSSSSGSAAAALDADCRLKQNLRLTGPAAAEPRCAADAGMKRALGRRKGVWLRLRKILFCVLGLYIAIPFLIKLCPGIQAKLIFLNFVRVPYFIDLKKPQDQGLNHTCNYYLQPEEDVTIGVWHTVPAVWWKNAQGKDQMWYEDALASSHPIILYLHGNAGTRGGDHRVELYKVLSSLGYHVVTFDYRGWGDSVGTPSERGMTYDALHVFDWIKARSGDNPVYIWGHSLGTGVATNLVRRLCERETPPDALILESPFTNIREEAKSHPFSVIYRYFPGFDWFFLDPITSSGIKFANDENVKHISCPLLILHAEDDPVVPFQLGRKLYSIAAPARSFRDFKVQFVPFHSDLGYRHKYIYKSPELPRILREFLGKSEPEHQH", "test": "ABHD12 activity", "format": "biochemical", "settings": "single point, 10 5 µM [sic]", "excerpt": "HEK293T cells were obtained from American Type Culture Collection (ATCC, Manassas, VA, USA). Lipofectamine 2000 was obtained from Life Technologies (Carlsbad, CA, USA) and geneticin from InvivoGen. Cell culture medium, FBS, and cell culture supplements were from Invitrogen (Carlsbad, CA, USA). pCMV6-AC-hABHD6 and pCMV6-XL4-hABHD12 were a kind gift from Prof Jarmo T. Laitinen. hABHD12 sequence was subsequently inserted in a pcDNA3.1 plasmid in order to generate a stable cell line. The effect of CB2R ligands on ABHD6 and ABHD12 hydrolytic activity was determined using cell homogenate from hABHD6 and hABHD12 overexpressing HEK293T cells (40 μg total protein per condition). Samples were pre-incubated with the compounds (10 μM in the screening assay and concentrations in the range 1 nM—50 μM for the dose-response curves) in […] (pH=7.6) buffer containing 0.1%(w/v) BSA. DMSO was used as vehicle control and WWL70 10 μM or THL 20 μM as positive controls. [^3H]-2-OG (10 μM final concentration) was added and after incubation of 5 min at 37 °C, the reaction was stopped by the addition of 400 μl of ice-cold CHCl3:MeOH (1:1). The samples were vortex and centrifuged (16,100g 10 min 4 °C). Aliquots (200 μl) of the aqueous phase were assayed for tritium content by liquid scintillation spectroscopy. The values obtained for each measurement were corrected for non-specific hydrolysis (non-ABHD6 mediated) by subtracting the signal obtained in the hydrolysis of [^3H]- 2-OG by non-transfected HEK293T."}, "alpha 1A (h)": {"target": "T2, alpha 1A (h) (Homo sapiens, UniProt P35348)", "T2 construct": "CEREP", "T2 sequence (P35348 1-466)": "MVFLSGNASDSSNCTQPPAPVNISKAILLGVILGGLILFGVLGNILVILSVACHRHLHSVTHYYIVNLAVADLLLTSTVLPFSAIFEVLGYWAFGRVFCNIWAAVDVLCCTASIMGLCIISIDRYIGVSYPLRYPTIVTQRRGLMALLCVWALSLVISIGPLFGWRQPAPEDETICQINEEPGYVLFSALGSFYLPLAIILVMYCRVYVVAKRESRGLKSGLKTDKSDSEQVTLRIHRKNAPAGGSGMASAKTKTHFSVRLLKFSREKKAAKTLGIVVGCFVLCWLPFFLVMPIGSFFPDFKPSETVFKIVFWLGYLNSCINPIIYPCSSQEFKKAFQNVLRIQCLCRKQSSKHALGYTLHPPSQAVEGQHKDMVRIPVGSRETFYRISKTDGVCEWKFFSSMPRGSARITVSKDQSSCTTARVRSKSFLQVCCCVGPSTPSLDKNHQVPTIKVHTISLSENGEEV", "test": "CEREP panel", "format": "binding", "settings": "10 µM"}, "hCB2R": {"target": "hCB2R (Homo sapiens, UniProt P34972)", "sequence (P34972 whole entry)": "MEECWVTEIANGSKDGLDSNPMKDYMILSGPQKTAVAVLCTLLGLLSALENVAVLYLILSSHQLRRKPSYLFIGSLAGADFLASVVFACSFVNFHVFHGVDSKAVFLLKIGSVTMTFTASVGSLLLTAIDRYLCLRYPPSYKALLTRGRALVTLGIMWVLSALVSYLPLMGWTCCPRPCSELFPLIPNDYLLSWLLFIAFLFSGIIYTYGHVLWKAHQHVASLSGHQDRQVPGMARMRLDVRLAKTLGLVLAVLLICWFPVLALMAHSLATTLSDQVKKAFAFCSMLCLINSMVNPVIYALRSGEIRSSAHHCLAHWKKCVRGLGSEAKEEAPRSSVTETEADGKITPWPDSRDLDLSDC", "parameters": "expressed in transfected cells; host or cells: Flp-In-293 (Invitrogen #R750-07), pcDNA5/FRT", "settings": "hCB2R"}, "A3 (h)": {"target": "T3, A3 (h) (Homo sapiens, UniProt P0DMS8)", "T3 construct": "CEREP", "T3 sequence (P0DMS8 1-318)": "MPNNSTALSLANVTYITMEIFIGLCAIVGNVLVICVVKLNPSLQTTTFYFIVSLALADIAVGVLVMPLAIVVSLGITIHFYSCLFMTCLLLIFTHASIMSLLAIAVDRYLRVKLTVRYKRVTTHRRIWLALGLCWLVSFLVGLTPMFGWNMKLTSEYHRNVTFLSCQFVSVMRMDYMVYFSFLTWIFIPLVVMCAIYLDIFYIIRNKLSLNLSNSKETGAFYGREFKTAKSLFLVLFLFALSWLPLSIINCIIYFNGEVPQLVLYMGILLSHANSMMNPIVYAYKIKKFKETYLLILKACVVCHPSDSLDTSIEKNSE", "test": "CEREP panel", "format": "binding", "settings": "10 µM"}, "Rat recombinant TRPM8": {"target": "T4, Rat recombinant TRPM8 (Rattus norvegicus, UniProt Q8R455)", "T4 construct": "expressed in transfected cells; host or cells: HEK293 (TRPM8-HEK-293, gift from Mario van der Stelt)", "T4 sequence (Q8R455 whole entry)": "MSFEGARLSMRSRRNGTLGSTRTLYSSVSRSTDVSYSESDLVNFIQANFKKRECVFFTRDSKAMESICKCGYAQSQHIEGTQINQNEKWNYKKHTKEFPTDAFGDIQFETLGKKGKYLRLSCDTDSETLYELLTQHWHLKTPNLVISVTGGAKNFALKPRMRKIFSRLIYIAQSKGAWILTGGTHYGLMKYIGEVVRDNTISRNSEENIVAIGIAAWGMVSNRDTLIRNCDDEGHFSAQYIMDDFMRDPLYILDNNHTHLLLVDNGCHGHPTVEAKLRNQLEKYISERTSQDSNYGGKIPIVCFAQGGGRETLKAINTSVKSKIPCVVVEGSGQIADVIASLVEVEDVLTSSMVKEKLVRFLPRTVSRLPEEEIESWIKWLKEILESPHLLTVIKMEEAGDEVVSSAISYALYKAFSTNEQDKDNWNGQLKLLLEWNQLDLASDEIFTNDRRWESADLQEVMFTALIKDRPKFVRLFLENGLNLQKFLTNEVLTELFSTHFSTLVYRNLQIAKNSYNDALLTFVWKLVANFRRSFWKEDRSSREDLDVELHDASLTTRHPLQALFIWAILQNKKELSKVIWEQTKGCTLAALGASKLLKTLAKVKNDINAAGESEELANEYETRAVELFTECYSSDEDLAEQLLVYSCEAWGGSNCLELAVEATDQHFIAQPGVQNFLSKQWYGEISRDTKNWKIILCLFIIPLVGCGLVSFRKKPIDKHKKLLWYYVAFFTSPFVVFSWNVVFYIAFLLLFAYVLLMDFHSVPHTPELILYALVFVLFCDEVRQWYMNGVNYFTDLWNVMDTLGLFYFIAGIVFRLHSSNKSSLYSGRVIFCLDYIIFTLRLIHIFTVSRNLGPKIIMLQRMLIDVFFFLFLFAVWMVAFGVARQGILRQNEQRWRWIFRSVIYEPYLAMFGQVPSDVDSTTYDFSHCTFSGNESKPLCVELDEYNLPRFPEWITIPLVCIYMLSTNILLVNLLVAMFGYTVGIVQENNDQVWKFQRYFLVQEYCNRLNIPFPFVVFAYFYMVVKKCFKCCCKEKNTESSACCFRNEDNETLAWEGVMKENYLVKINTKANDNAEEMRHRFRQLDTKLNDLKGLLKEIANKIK", "test": "TRP channel [Ca2+]i assay", "format": "cell-based", "settings": "vs icilin […]; read-out: TRPM8 IC50 for antagonism of icilin"}, "[1]": {"settings": "1 μM"}, "PCP": {"tested_on": "PCP", "format": "binding", "settings": "10 µM"}, "mCB1R": {"target": "T5, mCB1R (Mus musculus, UniProt P47746)", "T5 construct": "from tissue; host or cells: brain of male C57BL/6J mice", "T5 sequence (P47746 whole entry)": "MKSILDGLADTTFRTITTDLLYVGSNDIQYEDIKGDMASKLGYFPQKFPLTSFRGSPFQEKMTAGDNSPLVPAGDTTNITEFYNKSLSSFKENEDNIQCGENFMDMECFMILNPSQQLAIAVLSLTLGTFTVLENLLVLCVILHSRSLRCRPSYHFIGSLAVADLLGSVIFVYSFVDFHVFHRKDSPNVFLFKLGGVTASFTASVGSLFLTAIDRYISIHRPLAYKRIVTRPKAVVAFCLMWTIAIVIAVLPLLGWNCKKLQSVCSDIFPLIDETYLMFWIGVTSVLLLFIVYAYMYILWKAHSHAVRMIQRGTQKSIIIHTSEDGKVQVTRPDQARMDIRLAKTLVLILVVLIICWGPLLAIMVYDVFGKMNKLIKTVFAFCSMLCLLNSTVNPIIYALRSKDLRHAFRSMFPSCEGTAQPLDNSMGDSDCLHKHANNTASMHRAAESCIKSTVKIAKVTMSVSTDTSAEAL", "test": "biochemical", "format": "binding", "settings": "mouse brain membranes"}, "Rat recombinant TRPA1": {"target": "T6, Rat recombinant TRPA1 (Rattus norvegicus, UniProt Q6RI86)", "T6 construct": "expressed in transfected cells", "T6 sequence (Q6RI86 whole entry)": "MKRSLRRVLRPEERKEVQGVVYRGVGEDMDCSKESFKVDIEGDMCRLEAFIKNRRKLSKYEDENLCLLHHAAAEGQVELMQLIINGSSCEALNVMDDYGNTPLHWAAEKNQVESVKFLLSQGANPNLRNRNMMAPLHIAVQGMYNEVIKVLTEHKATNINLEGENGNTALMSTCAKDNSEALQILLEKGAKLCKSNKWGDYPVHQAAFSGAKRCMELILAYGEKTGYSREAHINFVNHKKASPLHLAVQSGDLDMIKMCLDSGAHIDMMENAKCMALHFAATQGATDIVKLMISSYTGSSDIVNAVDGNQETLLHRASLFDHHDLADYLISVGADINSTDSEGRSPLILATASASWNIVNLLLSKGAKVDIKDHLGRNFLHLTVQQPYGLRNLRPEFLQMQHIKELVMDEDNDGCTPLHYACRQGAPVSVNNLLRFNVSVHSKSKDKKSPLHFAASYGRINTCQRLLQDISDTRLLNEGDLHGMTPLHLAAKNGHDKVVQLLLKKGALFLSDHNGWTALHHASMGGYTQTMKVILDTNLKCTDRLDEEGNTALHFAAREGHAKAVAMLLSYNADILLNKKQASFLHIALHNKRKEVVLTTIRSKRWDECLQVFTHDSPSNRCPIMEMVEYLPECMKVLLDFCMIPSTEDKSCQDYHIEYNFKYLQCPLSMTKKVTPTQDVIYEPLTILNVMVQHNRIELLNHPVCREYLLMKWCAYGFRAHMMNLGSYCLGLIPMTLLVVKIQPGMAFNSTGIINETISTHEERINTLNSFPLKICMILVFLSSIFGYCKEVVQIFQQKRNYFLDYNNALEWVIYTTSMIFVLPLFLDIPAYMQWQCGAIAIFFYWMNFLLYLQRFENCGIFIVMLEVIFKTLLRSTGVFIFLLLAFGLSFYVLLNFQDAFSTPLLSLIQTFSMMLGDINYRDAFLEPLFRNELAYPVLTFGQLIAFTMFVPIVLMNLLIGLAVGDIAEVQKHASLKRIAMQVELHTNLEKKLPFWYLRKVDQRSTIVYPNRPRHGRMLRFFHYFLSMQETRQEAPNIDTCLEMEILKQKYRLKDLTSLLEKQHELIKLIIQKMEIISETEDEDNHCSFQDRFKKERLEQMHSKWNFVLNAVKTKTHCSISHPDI", "test": "cell-based", "format": "cell-based"}},
  "data": [
    {"compound": "CN1CCCC[C@H]1Cn1cc(C(=O)c2cc([N+](=O)[O-])ccc2I)c2ccccc21", "note": "[(S)-AM1241]", "values": [
      {"measurement": "ABHD12 % inhibition", "setting": "hABHD12", "value": "< 25", "unit": "%"},
      {"measurement": "% inhibition alpha 1A (h)", "setting": "alpha 1A (h)", "value": 75, "unit": "%"},
      {"measurement": "GIRK-GTPγS bias factor (BF)", "setting": "hCB2R", "value": 0.16},
      {"measurement": "GIRK-GTPγS ΔΔlogR", "setting": "hCB2R", "value": -0.79},
      {"measurement": "LogR GIRK", "setting": "hCB2R", "value": 5.70},
      {"measurement": "LogR GTPγS", "setting": "hCB2R", "value": 6.9},
      {"measurement": "LogR pERK", "setting": "hCB2R", "value": 7.54},
      {"measurement": "LogR β-AR", "setting": "hCB2R", "value": 5.97},
      {"measurement": "pERK-GIRK bias factor (BF)", "setting": "hCB2R", "value": 4.72},
      {"measurement": "pERK-GIRK ΔΔlogR", "setting": "hCB2R", "value": "0.68 ± 0.37"},
      {"measurement": "pERK-GTPγS bias factor (BF)", "setting": "hCB2R", "value": 0.77},
      {"measurement": "pERK-GTPγS ΔΔlogR", "setting": "hCB2R", "value": -0.11},
      {"measurement": "β-AR-GIRK bias factor (BF)", "setting": "hCB2R", "value": 0.43},
      {"measurement": "β-AR-GIRK ΔΔlogR", "setting": "hCB2R", "value": "-0.37 ± 0.33"},
      {"measurement": "β-AR-GTPγS bias factor (BF)", "setting": "hCB2R", "value": 0.07},
      {"measurement": "β-AR-GTPγS ΔΔlogR", "setting": "hCB2R", "value": "-1.16 ± 0.57"},
      {"measurement": "β-AR-pERK bias factor (BF)", "setting": "hCB2R", "value": 0.09},
      {"measurement": "β-AR-pERK ΔΔlogR", "setting": "hCB2R", "value": "-1.05 ± 0.44"},
      {"measurement": "ΔLogR GIRK", "setting": "hCB2R; reference CP55940", "value": -2.17},
      {"measurement": "ΔLogR GTPγS", "setting": "hCB2R; reference CP55940", "value": -1.38},
      {"measurement": "ΔLogR pERK", "setting": "hCB2R; reference CP55940", "value": -1.49},
      {"measurement": "ΔLogR β-AR", "setting": "hCB2R; reference CP55940", "value": -2.54},
      {"measurement": "RE GIRK", "setting": "hCB2R; relative effectiveness", "value": 0.01},
      {"measurement": "RE GTPγS", "setting": "hCB2R; relative effectiveness", "value": 0.04},
      {"measurement": "RE pERK", "setting": "hCB2R; relative effectiveness", "value": 0.03},
      {"measurement": "RE β-AR", "setting": "hCB2R; relative effectiveness", "value": 0.003},
      {"measurement": "% inhibition A3 (h)", "setting": "A3 (h)", "value": 42, "unit": "%"},
      {"measurement": "IC50", "setting": "Rat recombinant TRPM8", "value": "> 50", "unit": "µM"},
      {"measurement": "CL microsomes mouse", "setting": "[1]", "value": 640, "unit": "µL/min/mg protein"},
      {"measurement": "% inhibition PCP", "setting": "PCP", "value": 2, "unit": "%"},
      {"measurement": "pKi ± SEM mCB1R", "setting": "mCB1R", "value": "6.48 ± 0.08"},
      {"measurement": "TRPA1 Efficacy (%AITC 100μM)", "setting": "Rat recombinant TRPA1", "value": 47.5, "unit": "%"},
      {"measurement": "EC50", "setting": "Rat recombinant TRPA1; read-out: TRPA1 Potency EC50", "value": 5.8, "unit": "µM"},
      {"measurement": "IC50", "setting": "Rat recombinant TRPA1; vs AITC 100μM, 5 min pre-incubation, read-out: TRPA1 IC50 for antagonism or desensitization", "value": 40.9, "unit": "µM"}
    ]}
  ]
}
